Measurements reported in PubChem BioAssay AID464 (The Scripps Research Institute Molecular Screening Center, 2006).
The source made the active and inactive calls.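 How the source made its calls: active means Compounds that kill half the cells at a concentration of 5 micromolar or below, from the fitted or estimated CC50; inactive means CC50 above 5 micromolar.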

Tested on: Jurkat E6.1 viability, ATP luminescence, 48 h
Assay: Jurkat E6.1 cell cytotoxicity, CC50 determination, dose response, cytotoxicity control, ATP luminescence, 48 h, 60K MLSMR (AID 464)

Q: How did the CC50 turn out when `Cn1c(=O)n(C)c2cc(NS(=O)(=O)c3ccc4c(c3)CCCC4)ccc21` was run?
A: 8.18 µM (inactive)

Q: For `O=C(CC(=O)c1ccccc1O)c1cccc(F)c1`, which CC50 is on record?
A: > 40 µM (inactive)

Q: How did the CC50 turn out when `COc1ccccc1-c1cc(C(=O)Nc2cc(C)nn2-c2ccccc2)no1` was run?
A: 6.14 µM (inactive)

Q: With `O=C(C1CC1)N1CCC(c2nc(-c3ccc(S(=O)(=O)NCC4CCCO4)cc3)no2)CC1` (centres undefined) as the compound, how does the CC50 read?
A: 9.95 µM (inactive)

Q: Which CC50 does the source give for `CCOC(=O)C(C)Oc1cccc2c(=O)n(CC(=O)NCc3ccco3)ccc12` (centres undefined) here?
A: 1.1 µM

Q: `Cc1cccc(Cn2c(NCC(C)O)nc3c2c(=O)n(C)c(=O)n3C)c1` (centres undefined) was tested. Which CC50 did it give?
A: 8.24 µM (inactive)

Q: For `Cc1c(C(=O)OCC(C)C)[nH]c2c1C(=O)CC(c1ccco1)C2` (centres undefined), which CC50 is on record?
A: 0.462 µM

Q: How did the CC50 turn out when `CCCCn1c2c(c(=N)c3c1CCC3)CCC2` was run?
A: 3.9 µM

Q: With `CC1CCCCN1S(=O)(=O)c1ccc(C(=O)Nc2nnc(-c3cccs3)o2)cc1` (centres undefined) as the compound, how does the CC50 read?
A: 13.7 µM (inactive)

Q: For `CC(C)Oc1cc(O)c2c(=O)c(-c3ccc(O)cc3)coc2c1`, which CC50 is on record?
A: 11 µM (inactive)

Q: For `C=CCN(CC=C)S(=O)(=O)c1ccc2nc(NC(=O)C(C)C)sc2c1`, which CC50 is on record?
A: 3.72 µM

Q: With `COc1ccc(NS(=O)(=O)c2cc(OC)ccc2NC(=O)c2cc(C)oc2C)cc1` as the compound, how does the CC50 read?
A: 2.25 µM

Q: How did the CC50 turn out when `CC1Cc2cc(-c3csc(NC(=O)Cc4cccs4)n3)ccc2N1S(C)(=O)=O` (centres undefined) was run?
A: 5.23 µM (inactive)

Q: How did the CC50 turn out when `O=C(CN1CCC(c2nc3ccccc3s2)CC1)NCc1cccs1` was run?
A: 18 µM (inactive)

Q: How did the CC50 turn out when `CC(=O)c1c(C)[nH]c(C(=O)OCCCCN2C(=O)c3ccccc3C2=O)c1C` was run?
A: > 40 µM (inactive)

Q: `Cc1ccc(Oc2ccc(S(=O)(=O)N3CCOCC3)cc2C(N)=O)c(-n2nc3ccccc3n2)c1` was tested. Which CC50 did it give?
A: 2.31 µM

Q: Which CC50 does the source give for `N#Cc1c(NCc2ccccc2)ccnc1NCc1cccnc1` here?
A: 4.17 µM

Q: Which CC50 does the source give for `CCOC(=O)c1[nH]c(C)c(C(=O)Nc2cccc(Cl)c2C)c1C` here?
A: 3.8 µM

Q: How did the CC50 turn out when `Cc1ccc(Cl)cc1N1CCN(C(=O)C2CCN(c3nnc(-n4cccc4)s3)CC2)CC1` was run?
A: > 40 µM (inactive)

Q: `Cc1ccnc(SCC(=O)Nc2sc3c(c2C#N)CCCC3)n1` was tested. Which CC50 did it give?
A: > 40 µM (inactive)

Q: How did the CC50 turn out when `c1ccc(CNc2ncnc3ccccc23)cc1` was run?
A: 4.68 µM

Q: Which CC50 does the source give for `COc1ccc(NS(=O)(=O)c2ccc(NC(C)=O)cc2)cc1OC` here?
A: 17.7 µM (inactive)

Q: How did the CC50 turn out when `CCN(Cc1ccncc1)S(=O)(=O)c1ccc(C(C)=O)cc1` was run?
A: 9.44 µM (inactive)

Q: How did the CC50 turn out when `COc1ccccc1-c1cc(C(=O)Nc2cccnc2)no1` was run?
A: 0.146 µM

Q: `COc1cc(NS(=O)(=O)c2ccc(OC)c(C)c2C)c(OC)cc1Cl` was tested. Which CC50 did it give?
A: 1.62 µM

Q: Which CC50 does the source give for `COC(=O)c1[nH]c2c(c1C)C(=O)CC(c1ccccc1)C2` (centres undefined) here?
A: 0.391 µM

Q: For `Cn1cc(C(=O)c2ccc(Cl)cc2)cc1-c1nc2ccccc2n1C`, which CC50 is on record?
A: 23.3 µM (inactive)

Q: How did the CC50 turn out when `Nc1nonc1-c1nc2ccccc2n1Cc1ccccc1` was run?
A: 6.41 µM (inactive)

Q: For `C/C(N)=C(/C#N)C(=O)CSc1nnnn1-c1ccc(C)cc1C`, which CC50 is on record?
A: > 40 µM (inactive)

Q: `CCN(CC)C(=O)C1CCCc2c1[nH]c1ccc(Cl)cc21` (centres undefined) was tested. Which CC50 did it give?
A: > 40 µM (inactive)

Q: For `Cc1cc(C)n2nc(SCC(=O)c3cc(C)n(-c4cc(C)on4)c3C)nc2n1`, which CC50 is on record?
A: 29.4 µM (inactive)

Q: For `Cc1noc(C)c1COC(=O)c1cccc(S(=O)(=O)N2CCCCCC2)c1`, which CC50 is on record?
A: 21.4 µM (inactive)

Q: With `COc1cc(C2C(C#N)=C(C)NC3=C2C(=O)c2ccccc23)cc(OC)c1OC` (centres undefined) as the compound, how does the CC50 read?
A: 3.48 µM

Q: `Oc1c(CN2CCOCC2)cc(COCc2ccccc2)c2cccnc12` was tested. Which CC50 did it give?
A: 2.65 µM

Q: For `COc1ccccc1C1CC(=O)Nc2cc3c(cc21)OCCO3` (centres undefined), which CC50 is on record?
A: 0.912 µM

Q: With `COc1ccc(NS(=O)(=O)c2cc(C)ccc2C)cc1` as the compound, how does the CC50 read?
A: 5.18 µM (inactive)

Q: How did the CC50 turn out when `COc1cc(NS(=O)(=O)c2ccc3c(c2)oc(=O)n3C)cc(OC)c1OC` was run?
A: 5.88 µM (inactive)

Q: How did the CC50 turn out when `COc1cc(C(=O)N2CCN(c3ncnc4sc(C)c(C)c34)CC2)cc(OC)c1OC` was run?
A: 2.36 µM

Q: `Cn1ncnc2c(=O)n(C)c(=O)nc1-2` was tested. Which CC50 did it give?
A: 2.06 µM

Q: Which CC50 does the source give for `CCCCOc1ncnc2c1[nH]c1ccccc12` here?
A: 5.71 µM (inactive)

Q: `COCCCN(C(C)=O)c1nc(-c2ccc(OC)cc2)cs1` was tested. Which CC50 did it give?
A: > 4.4 µM (inactive)

Q: How did the CC50 turn out when `COCCOC(=O)c1[nH]c2c(c1C)C(=O)CC(c1ccco1)C2` (centres undefined) was run?
A: 0.945 µM

Q: `O=C(Nc1nccs1)c1ccc(S(=O)(=O)NCC2CCCCC2)cc1` was tested. Which CC50 did it give?
A: > 40 µM (inactive)

Q: For `COc1ccc(C(=O)n2c(-c3ccco3)nc3ccccc32)cc1`, which CC50 is on record?
A: 1.79 µM

Q: With `CCOC(=O)C1CCN(CC(=O)Nc2c(C(=O)OC)[nH]c3ccc(Cl)cc23)CC1` as the compound, how does the CC50 read?
A: 31.2 µM (inactive)

Q: `O=C(NCc1cccnc1)c1c[nH]c2cc3c(cc2c1=O)OCCO3` was tested. Which CC50 did it give?
A: 1.09 µM

Q: Which CC50 does the source give for `COc1cccc(OC)c1C1=NCC(=O)Nc2c1oc1ccc(Br)cc21` here?
A: 0.693 µM

Q: With `CCCOc1ccccc1C1CC(=O)NC2=C1C(=O)CCC2` (centres undefined) as the compound, how does the CC50 read?
A: 1.52 µM

Q: Which CC50 does the source give for `COc1ccccc1-c1nnc(Nc2nc3c(OC)cccc3s2)o1` here?
A: 0.664 µM

Q: `O=C(Cn1cnc2sc(-c3ccccc3)cc2c1=O)NCc1ccco1` was tested. Which CC50 did it give?
A: 6 µM (inactive)

Q: `C(=C\c1ccccc1)/CSc1nnc(-c2ccccn2)n1Cc1ccco1` was tested. Which CC50 did it give?
A: 2.28 µM

Q: Which CC50 does the source give for `CC1CC(C)CN(S(=O)(=O)c2ccc(C(=O)NCCCn3ccnc3)cc2)C1` (centres undefined) here?
A: 1.08 µM

Q: For `O=C(NC1CC1)c1cc2c(s1)-c1ccccc1OC2`, which CC50 is on record?
A: 15.6 µM (inactive)

Q: Which CC50 does the source give for `CCCCN(CC)S(=O)(=O)c1ccc(C(=O)Nc2nnc(CSC)o2)cc1` here?
A: 37.6 µM (inactive)
